Values quoted from earlier work, collected in patent publication US20210015755A1, “SECNIDAZOLE SOFT GELATIN CAPSULE AND METHODS AND USES THEREOF” (Lupin Inc., priority 2019, published 2021).

Key:
[1] = system: bacterial vaginosis

| excreted intact in the urine (in vivo) [%] | absorption after oral administration (oral administration) | SMILES | effectiveness in the treatment of bacterial vaginosis ([1]; 500 mg ovule formulation versus 37.5 mg metronidazole gel (Sanchez et al.)) | cure rates ([1]; intravaginal 750 mg ovule formulation versus 500 mg ovule composition (Aguin et al.)) |
| --- | --- | --- | --- | --- |
| – | – | Cc1ncc([N+](=O)[O-])n1CCO [metronidazole] | significantly more effective | higher cure rates |
| 50 | rapidly and completely absorbed | Cc1ncc([N+](=O)[O-])n1CC(C)O (stereo not shown) [Secnidazole, 1-(2-hydroxypropyl)-2-methyl-5-nitromidazole] | – | – |
